Results reported in ChEMBL document CHEMBL2069169, “Novel triazines as potent and selective phosphodiesterase 10A inhibitors” (Bioorg Med Chem Lett, 2012).
Activity calls are given as the source filed them. No cut-off for these calls is given here.

What was measured:
[1] = Volume of distribution at steady state in rat at 2 mg/kg, iv and 10 mg/kg, po; type: ADME, organism-based; conditions: in vivo, read-out: Vdss
[2] = Elimination half life in rat at 2 mg/kg, iv and 10 mg/kg, po; type: ADME, organism-based; conditions: in vivo, read-out: beta t1/2 (converted)
[3] = AUC in rat brain at 2 mg/kg, iv and 10 mg/kg, po; type: ADME, organism-based
Rattus norvegicus [4] = experiment: Antipsychotic activity in po dosed rat assessed as reduction of MK801-induced hyperactivity; type: functional; set-up: Activity: scale not given: the % may be the effect or the level left
Phosphodiesterase 6 = experiment: Inhibition of PDE6; type: protein assay, Homo sapiens
[5] = Clearance in rat at 2 mg/kg, iv and 10 mg/kg, po; type: ADME, organism-based; conditions: in vivo
Phosphodiesterase 4 = Phosphodiesterase 4 (Homo sapiens, UniProt P27815+Q08499+Q07343+Q08493); experiment: Inhibition of PDE4; type: protein assay
[6] = molecular target: cGMP-specific 3',5'-cyclic phosphodiesterase (Canis lupus familiaris, UniProt O77746); experiment: Inhibition of PDE5; set-up: species or system Homo sapiens
Phosphodiesterase 3 = Phosphodiesterase 3 (Homo sapiens, UniProt Q14432+Q13370); experiment: Inhibition of PDE3; type: protein assay
Rattus norvegicus [7] = experiment: Antipsychotic activity in Sprague-Dawley rat assessed as reduction of conditioned avoidance response at 0.17 mg/kg, po; type: functional, organism-based; set-up: dose 0.17 mg/kg
[8] = Oral bioavailability in rat at 10 mg/kg; type: ADME, organism-based; conditions: in vivo
Rattus norvegicus [9] = experiment: Antipsychotic activity in po dosed Sprague-Dawley rat assessed as reduction of conditioned avoidance response; type: functional
[10] = AUC in rat plasma at 2 mg/kg, iv and 10 mg/kg, po; type: ADME, organism-based
Rattus norvegicus [11] = experiment: Antipsychotic activity in po dosed rat assessed as reduction of MK801-induced stereotyped sniffing; type: functional; set-up: Activity: scale not given: the % may be the effect or the level left
[12] = Rattus norvegicus, po, read-out: MED

Vd [1]: 1.3 L/kg | half-life [2]: 4.5 h | AUC [3]: 622 ng·h/mL | IC50 (Phosphodiesterase 6): 1790 nM | clearance [5]: 5 mL/min/kg | IC50 (Phosphodiesterase 4): > 10000 nM | IC50 [6]: 2290 nM | IC50 (Phosphodiesterase 3): > 10000 nM | bioavailability [8]: 53% | AUC [10]: 1600 ng·h/mL
SMILES: COc1cc(C(F)(F)F)cc2c1nnc1c(C)nc(-c3ccncc3C)n12
Activity (Rattus norvegicus [4]): 40.5% | minimal effective dose (Rattus norvegicus [4]; [12]): 0.1 mg/kg | Activity (Rattus norvegicus [7]): Active | ID30 (Rattus norvegicus [9]): 0.123 mg/kg | ED50 (Rattus norvegicus [9]; Rattus norvegicus, Sprague-Dawley, po, read-out: ID50 (the source's name)): 0.204 mg/kg | Activity (Rattus norvegicus [11]): 18.4% | minimal effective dose (Rattus norvegicus [11]; [12]): 0.1 mg/kg
